Common to all, as to assay: ≥ marks a high value that may be exact or a test limit, other limits are often not marked, values filed in µg/mL are converted to µM
In experiment [1] the test system is Staphylococcus aureus KCTC 1621.
Experiment [2] has as its system Aspergillus fumigatus KCTC 4165.
Experiment [3] deals with Bacillus subtilis KCTC 1918.
Experiment [4] relates to Streptococcus pyogenes KCTC 3096.
The subject of experiment [5] is Candida albicans TIMM 1768.
For experiment [6], the system named is Pseudomonas aeruginosa KCTC 1637.
The subject of experiment [7] is Salmonella typhimurium KCTC 1926.
Experiment [8] deals with Escherichia coli KCTC 1682.

Converted amounts (≈) assume the structure as drawn.

Consider `CC[C@H](C)[C@H](NC(=O)[C@H](CCCCN)NC(=O)[C@H](CCCCN)NC(=O)[C@H](CC(C)C)NC(=O)[C@H](CCCCN)NC(=O)[C@H](CCC(=O)O)NC(=O)CN)C(=O)NCC(=O)N[C@@H](CCC(N)=O)C(=O)N[C@@H](CCCCN)C(=O)N[C@H](C(=O)N[C@@H](CCCCN)C(=O)N[C@@H](CC(N)=O)C(=O)N[C@@H](Cc1ccccc1)C(=O)N[C@@H](Cc1ccccc1)C(=O)N[C@@H](CCCCN)C(=O)N[C@@H](CCCCN)C(=O)N[C@@H](CC(C)C)C(=O)O)[C@@H](C)CC` [GEKLKKIGQKIKNFFKKL], for which the MIC in experiment [1] came to 6.25 µM (≈ 13.4 µg/mL); in experiment [2] it was 25 µM (≈ 53.7 µg/mL); in experiment [3], 6.25 µM (≈ 13.4 µg/mL); in experiment [4], 12.5 µM (≈ 26.8 µg/mL); in experiment [5], 25 µM (≈ 53.7 µg/mL); in experiment [6], 3.12 µM (≈ 6.7 µg/mL). Besides, the MIC in experiment [7] and in experiment [8] was 6.25 µM (≈ 13.4 µg/mL) throughout.

As usually defined, the MIC is the smallest concentration in the dilution series that meets the test's criterion for growth inhibition. Higher therefore signals weaker potency.

For the origin of these results see DBAASP.
